Test results reported in US20080161234A1, “Composition Comprising Lactic Acid and Lactoferrin” (priority 2004, published 2008).
Counter-ions that a name gives are not always drawn.

Assays:
Type in all cases: cell-based
[1] = tested on: C. albicans (ATCC 64549); experiment: Microbicidal microplate assay (viable counts), C. albicans
Protocol: The bacterial strains S. aureus 1800 (CCUG 1800), E. coli 06, and the yeast C. albicans (ATCC 64549) have been used in the microplate assay. All microorganisms were cultured in brain heart infusion medium (BHI) on a shaker over night at 37° C. A volume of the culture was transferred to a new tube with BHI and incubated for two more h on the shaker. The bacteria were harvested in the log phase, washed once and thereafter suspended in the broth used for the microplate assay. The suspension was adjusted spectrophotometrically and diluted to a concentration of approximately 4×10^6 cells per ml at 650 nm. Washed cells were suspended in 0.2% BP (pH 7.0) or BHI medium diluted 1/10 (0.34%, pH 6.7-6.9) (Difco, USA). The concentration of bacterial or fungal cells was spectrophotometrically adjusted. LF or peptide, serially diluted in BHIdil or BP by twofold steps (unless otherwise stated), were added in triplicate to the wells of a microtiterplate (200 ul per well). The bacterial or yeast cell solutions were added in 10 ul volumes to give a final concentration of approximately 2×10^5 cells per ml. The concentration of the stock solution was always checked by viable counts. The microplate was incubated at 37° C. in a humid chamber for 2 h unless otherwise stated. Five ul were taken from each well and added as a drop onto a blood agar plate and incubated over night at 37° C. In some experiments more thorough viable counts were performed and the killing was expressed as remaining colony forming units in relation to the inoculum. The lower limit for detection of microorganisms was 200 CFU/ml. The antimicrobial activity of human LF was analysed by the microbicidal assay described above. Different microbes such as C. albicans, E. coli and S. aureus were analysed with respect to their survival in lactate (not containing the inert gel base, which makes the gel unsuitable for the microbicidal assay) containing LF. […] LF was incubated together with various concentrations of lactate diluted in 0.2% bactopeptone and C. albicans for 2 h. Thereafter each solution was analysed for viable counts.

[2] = tested on: E. coli 06; experiment: Microbicidal microplate-droplet assay, E. coli; parameters: key to E. coli killing, growth grade in droplet assay: +++ means that the number of colony forming units (CFU) contained within 5 ul of a droplet formed a smooth layer of bacteria; ++ means that a “ruffled” area is seen; 0 means that no CFU were found in triplicate samples of 5 ul (>99.95 killed of the inoculum)
Protocol: (§1) The bacterial strains S. aureus 1800 (CCUG 1800), E. coli 06, and the yeast C. albicans (ATCC 64549) have been used in the microplate assay. All microorganisms were cultured in brain heart infusion medium (BHI) on a shaker over night at 37° C. A volume of the culture was transferred to a new tube with BHI and incubated for two more h on the shaker. The bacteria were harvested in the log phase, washed once and thereafter suspended in the broth used for the microplate assay. The suspension was adjusted spectrophotometrically and diluted to a concentration of approximately 4×10^6 cells per ml at 650 nm. Washed cells were suspended in 0.2% BP (pH 7.0) or BHI medium diluted 1/10 (0.34%, pH 6.7-6.9) (Difco, USA). The concentration of bacterial or fungal cells was spectrophotometrically adjusted. LF or peptide, serially diluted in BHIdil or BP by twofold steps (unless otherwise stated), were added in triplicate to the wells of a microtiterplate (200 ul per well). The bacterial or yeast cell solutions were added in 10 ul volumes to give a final concentration of approximately 2×10^5 cells per ml. The concentration of the stock solution was always checked by viable counts. The microplate was incubated at 37° C. in a humid chamber for 2 h unless otherwise stated. Five ul were taken from each well and added as a drop onto a blood agar plate and incubated over night at 37° C. In some experiments more thorough viable counts were performed and the killing was expressed as remaining colony forming units in relation to the inoculum. The lower limit for detection of microorganisms was 200 CFU/ml. The antimicrobial activity of human LF was analysed by the microbicidal assay described above. Different microbes such as C. albicans, E. coli and S. aureus were analysed with respect to their survival in lactate (not containing the inert gel base, which makes the gel unsuitable for the microbicidal assay) containing LF.

[3] = tested on: L. jensenii; experiment: Survival of L. jensenii in lactate with LF; settings: lactate 1%, 0.34% BHI, CO2, 3 h
Protocol: L. gasseri and L. jensenii were cultured on chocolate-agar plates for 24 h in 5% CO2/95% air. They were thereafter harvested and added to BHI (0.34%). After washing the bacterial solutions were adjusted spectrophotometrically and diluted to 8×10^6 bacteria/ml.
Washed cells were suspended in 0.2% BP (pH 7.0) or BHI medium diluted 1/10 (0.34%, pH 6.7-6.9) (Difco, USA). The concentration of bacterial or fungal cells was spectrophotometrically adjusted. LF or peptide, serially diluted in BHIdil or BP by twofold steps (unless otherwise stated), were added in triplicate to the wells of a microtiterplate (200 ul per well). The bacterial or yeast cell solutions were added in 10 ul volumes to give a final concentration of approximately 2×10^5 cells per ml. The concentration of the stock solution was always checked by viable counts. The microplate was incubated at 37° C. in a humid chamber for 2 h unless otherwise stated. Five ul were taken from each well and added as a drop onto a blood agar plate and incubated over night at 37° C. In some experiments more thorough viable counts were performed and the killing was expressed as remaining colony forming units in relation to the inoculum. The lower limit for detection of microorganisms was 200 CFU/ml.
L. gasseri survived better in the assay system than did L. jensenii. Undiluted lactate (5%) affected the survival of Lactobacillus.

[4] = tested on: S. aureus 1800 (CCUG 1800); experiment: Microbicidal microplate-droplet assay, S. aureus
Protocol: as §1

[5] = in the absence or presence of LF

Cl [HCl, hydrogen chloride, reference compound]
Candidacidal activity with lactate replaced by HCl ([1]; HCl giving the same pH as lactate, undiluted, with LF): reduced Candidacidal activity

CC(O)C(=O)O (stereo not drawn) [lactate, α-hydroxipropionic acid]
antibacterial activity towards E. coli [2, 5]: good | E. coli killing, growth grade in droplet assay ([2]; lactate 0.2% alone (HLF 0 ug/ml), 2 h incubation): ++ | E. coli killing, percentage of bacteria remaining in relation to the inoculum ([2]; lactate 0.2% alone (HLF 0 ug/ml), 5 h incubation): 5% | E. coli killing, percentage of bacteria remaining in relation to the inoculum ([2]; lactate 1% alone (HLF 0 ug/ml), 5 h incubation): 6% | E. coli killing, percentage of bacteria remaining in relation to the inoculum ([2]; lactate 5% alone (HLF 0 ug/ml), 2 h incubation): 0 (0 means that no CFU were found in triplicate samples of 5 ul (>99.95 killed of the inoculum)) | E. coli killing, percentage of bacteria remaining in relation to the inoculum ([2]; lactate 5% alone (HLF 0 ug/ml), 5 h incubation): 0 (0 means that no CFU were found in triplicate samples of 5 ul (>99.95 killed of the inoculum)) | survival of E. coli ([2]; undiluted lactate (5%), 2 h): no bacteria survived | antimicrobial activity against E. coli ([2]; undiluted lactate, without LF): complete | reduction of Candida ([1]; lactate 1% without LF, 2 h): 65% | antifungal activity ([1]; undiluted lactate): an antifungal activity was observed | survival of C. albicans ([1]; undiluted lactate (5%), 2 h): no yeast cells survived | antimicrobial activity against C. albicans ([1]; undiluted lactate (5%), without LF or HL2): complete | survival of L. jensenii [3]: did not survive | antibacterial activity towards S. aureus [4, 5]: good | S. aureus killing, percentage of bacteria remaining in relation to the inoculum ([4]; lactate 0.2% alone (HLF t0 ug/ml), 2 h incubation): 0 (0 = no bacteria in triplicate samples of 5 ul (>99.95 killed of the inoculum).) | S. aureus killing, percentage of bacteria remaining in relation to the inoculum ([4]; lactate 0.2% alone (HLF t0 ug/ml), 5 h incubation): 0 (0 = no bacteria in triplicate samples of 5 ul (>99.95 killed of the inoculum).) | S. aureus killing, percentage of bacteria remaining in relation to the inoculum ([4]; lactate 1% alone (HLF t0 ug/ml), 2 h incubation): 0 (0 = no bacteria in triplicate samples of 5 ul (>99.95 killed of the inoculum).) | S. aureus killing, percentage of bacteria remaining in relation to the inoculum ([4]; lactate 1% alone (HLF t0 ug/ml), 5 h incubation): 0 (0 = no bacteria in triplicate samples of 5 ul (>99.95 killed of the inoculum).) | S. aureus killing, percentage of bacteria remaining in relation to the inoculum ([4]; lactate 5% alone (HLF t0 ug/ml), 2 h incubation): 0 (0 = no bacteria in triplicate samples of 5 ul (>99.95 killed of the inoculum).) | S. aureus killing, percentage of bacteria remaining in relation to the inoculum ([4]; lactate 5% alone (HLF t0 ug/ml), 5 h incubation): 0 (0 = no bacteria in triplicate samples of 5 ul (>99.95 killed of the inoculum).) | antimicrobial activity against S. aureus ([4]; undiluted lactate, without LF): complete
